The text below walks through data of publication PMC7982674, “XMD-17-51 Inhibits DCLK1 Kinase and Prevents Lung Cancer Progression” (Frontiers in Pharmacology, 2021).

The target in this experiment is T1, Doublecortin-like kinase 1 (DCLK1) (Homo sapiens, UniProt O15075).
T1 construct: Purified kinase-active DCLK1 (cat. no., 02-139, Carna Biosciences)
T1 sequence (O15075 1-740): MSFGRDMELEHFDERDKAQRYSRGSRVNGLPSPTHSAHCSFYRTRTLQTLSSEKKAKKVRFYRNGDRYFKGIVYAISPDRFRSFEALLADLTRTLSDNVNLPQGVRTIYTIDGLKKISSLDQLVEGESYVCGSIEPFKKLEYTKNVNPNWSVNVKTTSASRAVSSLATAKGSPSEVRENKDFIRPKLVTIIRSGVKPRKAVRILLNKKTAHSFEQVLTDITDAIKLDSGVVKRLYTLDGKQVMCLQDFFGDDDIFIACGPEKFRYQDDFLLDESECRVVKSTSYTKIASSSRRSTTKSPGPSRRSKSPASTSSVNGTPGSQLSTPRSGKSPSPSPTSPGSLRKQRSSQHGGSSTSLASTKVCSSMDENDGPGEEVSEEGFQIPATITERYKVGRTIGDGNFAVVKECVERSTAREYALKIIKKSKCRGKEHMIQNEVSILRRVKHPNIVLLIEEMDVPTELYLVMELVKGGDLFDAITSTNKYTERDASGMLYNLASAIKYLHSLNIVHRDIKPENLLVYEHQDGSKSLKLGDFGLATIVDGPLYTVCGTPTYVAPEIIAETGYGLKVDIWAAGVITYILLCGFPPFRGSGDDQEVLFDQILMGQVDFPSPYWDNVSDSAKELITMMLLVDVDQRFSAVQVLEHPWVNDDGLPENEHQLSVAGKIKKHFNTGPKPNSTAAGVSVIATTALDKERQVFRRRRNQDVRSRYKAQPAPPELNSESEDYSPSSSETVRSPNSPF
The experiment in a line: cell-free kinase assay with ULight-CREBtide peptide substrate, […] ATP (Envision readout). In kind it is biochemical.

SMILES strings stand for the structures.

`CN1C(=O)c2ccccc2N(C)c2nc(Nc3cnn(C4CCNCC4)c3)ncc21` [XMD-17-51] returned an IC50 of 14.6 nM.
